# Marks after values point to notes of the source that are not given here.
# Conditions: pH 2.3
row,SMILES,Log P
1,CCOC(=O)C(C#N)=C(NC1CC1)c1cccnc1Cl [Compound 764],2.5
2,CCOC(=O)C(C#N)=C(NC(C)C)c1cccnc1Cl [Compound 823],2.54
3,COC(=O)C(C#N)=C(NC(C)C#N)c1cccnc1Cl (centres unmarked) [Compound 869],1.85

# Same assay, conditions: pH 2.7
row,Log P,SMILES
1,3.37^[a],CCOC(=O)C(C#N)=C(NC(C)COc1ccccc1)c1cn(C)nc1C(F)F (centres unmarked) [Compound 738]
2,3.48^[a],CCOC(=O)C(C#N)=C(NC(C)COCc1ccccc1F)c1cn(C)nc1C(F)F (centres unmarked) [Compound 740]
3,2.31^[a],COC(=O)C(C#N)=C(NC(C)(C)CF)c1cccnc1Cl [Compound 744]
4,2.8^[a],CCOC(=O)C(C#N)=C(NC(C)CF)c1cc(C)oc1C (centres unmarked) [Compound 745]
5,3.49^[a],CCOC(=O)C(C#N)=C(NC(C)CF)c1cc(Cl)sc1Cl (centres unmarked) [Compound 747]
6,2.23^[a],CCOC(=O)C(C#N)=C(NC(C)CF)c1cn(C)nc1OC (centres unmarked) [Compound 748]
7,2.25^[a],C=Cc1nn(C)cc1C(NC(C)CF)=C(C#N)C(=O)OCC (centres unmarked) [Compound 749]
8,2.95^[a],CCOC(=O)C(C#N)=C(NC(C)CF)c1cn(C)cc1C(F)(F)F (centres unmarked) [Compound 752]
9,3.46^[a],CCOC(=O)C(C#N)=C(NC(C)(C)C(C)(C)C)c1cn(C)nc1C(F)F [Compound 753]
10,4.02^[a],COC(=O)C(C#N)=C(NC(C)(C)C(C)(C)C)c1sc(C)nc1C(F)(F)F [Compound 754]
11,2.76^[a],CCC(CC)NC(=C(C#N)C(=O)OC)c1cccnc1Cl [Compound 756]
12,2.34^[a],COC(=O)C(C#N)=C(NC(C)CC(F)(F)F)c1cccnc1Cl (centres unmarked) [Compound 757]
13,2.34^[a],COC(=O)C(C#N)=C(NC(C)(C)CC(F)(F)F)c1cccnc1Cl [Compound 758]
14,1.87^[a],COC(=O)C(C#N)=C(NC1CC1F)c1cccnc1Cl (centres unmarked) [Compound 759]
15,3.55^[a],CCOC(=O)C(C#N)=C(NC1CCCCC1)c1cccnc1Cl [Compound 761]
16,2.85^[a],COC(=O)C(C#N)=C(NC(C1CC1)C1CC1)c1cccnc1Cl [Compound 765]
17,2.84^[a],COC(=O)C(C#N)=C(NC(C)CC1CC1)c1cccnc1Cl (centres unmarked) [Compound 766]
18,4.04^[a],CCOC(=O)C(C#N)=C(NC(C)C1(Cl)CC1)c1sccc1C(F)(F)F (centres unmarked) [Compound 769]
19,3.53^[a],COC(=O)C(C#N)=C(NC(C)C1(Cl)CC1)c1sc(C)nc1C(F)(F)F (centres unmarked) [Compound 770]

row,Log P,SMILES
1,3.94^[a],CCOC(=O)C(C#N)=C(NC(C)C1(Cl)CC1)c1sccc1Br (centres unmarked) [Compound 771]
2,2.31^[a],COC(=O)C(C#N)=C(NC(C)(C)C)c1cccnc1Cl [Compound 775]
3,3.82^[a],CCOC(=O)/C(C#N)=C(\NC(C)(C)C)c1nc(SC)ncc1Br [Compound 776]
4,2.01^[a],COC(=O)C(C#N)=C(NCC#N)c1sc(C)nc1C(F)(F)F [Compound 787]
5,1.79^[a],CCOC(=O)C(C#N)=C(NCC#N)c1cn(C)nc1C(F)F [Compound 788]
6,2.33^[a],CCOC(=O)C(C#N)=C(NCC#N)c1sccc1Br [Compound 789]
7,2.35^[a],CCOC(=O)C(C#N)=C(NCC#N)c1sc(C)nc1C(F)(F)F [Compound 790]
8,2.32^[a],CCOC(=O)C(C#N)=C(NCC#N)c1ccsc1Br [Compound 791]
9,3.58^[a],CCOC(=O)C(C#N)=C(NC1CCC1)c1nc(Cl)ccc1Cl [Compound 794]
10,3.67^[a],CCOC(=O)C(C#N)=C(NC1CCC1)c1ncc(Cl)cc1Cl [Compound 795]
11,3.55^[a],CCOC(=O)C(C#N)=C(NC1CCC1)c1cnc(Cl)cc1Cl [Compound 796]
12,3.55^[a],CCOC(=O)C(C#N)=C(NC1CCC1)c1cc(Cl)ncc1Cl [Compound 797]
13,3.79^[a],CCOC(=O)C(C#N)=C(NC1CCC1)c1cc(Cl)cc(Cl)n1 [Compound 801]
14,3.52^[a],CCOC(=O)C(C#N)=C(NC1CCC1)c1ccnc(Cl)c1Cl [Compound 802]
15,2.11^[a],COC(=O)C(C#N)=C(NC(C)C)c1cccnc1Cl [Compound 822]
16,3.63^[a],CCOC(=O)C(C#N)=C(NC(C)CC)c1cc(C)oc1C (centres unmarked) [Compound 825]
17,3.83^[a],CCOC(=O)C(C#N)=C(NC(C)CC)c1sccc1C(F)(F)F (centres unmarked) [Compound 829]
18,3.23^[a],CCC(C)NC(=C(C#N)C(=O)OC)c1sc(C)nc1C(F)(F)F (centres unmarked) [Compound 831]
19,2.82^[a],CCOC(=O)C(C#N)=C(NC(C)CC)c1cn(C)nc1C(F)F (centres unmarked) [Compound 833]

row,Log P,SMILES
1,3.59^[a],CCOC(=O)C(C#N)=C(NC(C)CC)c1sc(C)nc1C(F)(F)F (centres unmarked) [Compound 835]
2,5.03^[a],CCCCCC(C)NC(=C(C#N)C(=O)OCC)c1sccc1Br (centres unmarked) [Compound 844]
3,5.05^[a],CCCCCC(C)NC(=C(C#N)C(=O)OCC)c1sccc1C(F)(F)F (centres unmarked) [Compound 847]
4,4.41^[a],CCCCCC(C)NC(=C(C#N)C(=O)OC)c1sc(C)nc1C(F)(F)F (centres unmarked) [Compound 850]
5,3.94^[a],CCCCCC(C)NC(=C(C#N)C(=O)OCC)c1cn(C)nc1C(F)F (centres unmarked) [Compound 853]
6,4.81^[a],CCCCCC(C)NC(=C(C#N)C(=O)OCC)c1sc(C)nc1C(F)(F)F (centres unmarked) [Compound 856]
7,4.94^[a],CCCCC[C@H](C)N/C(=C(/C#N)C(=O)OCC)c1ccsc1Br [Compound 861]
8,4.99^[a],CCCCCC(C)N/C(=C(/C#N)C(=O)OCC)c1ccsc1Br (centres unmarked) [Compound 862]
9,3.19^[a],CCCC(C)NC(=C(C#N)C(=O)OCC)c1cn(C)nc1C(F)F (centres unmarked) [Compound 864]
10,4.21^[a],CCCC(C)NC(=C(C#N)C(=O)OCC)c1sccc1C(F)(F)F (centres unmarked) [Compound 865]
11,3.61^[a],CCCC(C)NC(=C(C#N)C(=O)OC)c1sc(C)nc1C(F)(F)F (centres unmarked) [Compound 866]
12,4.16^[a],CCCC(C)NC(=C(C#N)C(=O)OCC)c1sccc1Br (centres unmarked) [Compound 867]
13,3.96^[a],CCCC(C)NC(=C(C#N)C(=O)OCC)c1sc(C)nc1C(F)(F)F (centres unmarked) [Compound 868]
14,3.92^[a],CCOC(=O)C(C#N)=C(NC(C)C1CCCCC1)c1cn(C)nc1C(F)F (centres unmarked) [Compound 872]
15,5.11^[a],CCOC(=O)C(C#N)=C(NC(C)C1CCCCC1)c1sccc1C(F)(F)F (centres unmarked) [Compound 873]
16,4.46^[a],COC(=O)C(C#N)=C(NC(C)C1CCCCC1)c1sc(C)nc1C(F)(F)F (centres unmarked) [Compound 874]
17,5.11^[a],CCOC(=O)C(C#N)=C(NC(C)C1CCCCC1)c1sccc1Br (centres unmarked) [Compound 875]
18,4.86^[a],CCOC(=O)C(C#N)=C(NC(C)C1CCCCC1)c1sc(C)nc1C(F)(F)F (centres unmarked) [Compound 876]

row,SMILES,Log P
1,CCOC(=O)C(C#N)=C(NC(C)COc1ccc(F)cc1)c1cn(C)nc1C(F)F (centres unmarked) [Compound 736],3.42^[a]
2,CCOC(=O)C(C#N)=C(NC(C)C(C)Sc1ccccc1)c1cn(C)nc1C(F)F (centres unmarked) [Compound 737],3.87^[a]
3,CCOC(=O)C(C#N)=C(NC(C)COCc1ccccc1)c1cn(C)nc1C(F)F (centres unmarked) [Compound 739],3.48^[a]
4,CCOC(=O)C(C#N)=C(NC(C)COc1ccccc1Cl)c1cn(C)nc1C(F)F (centres unmarked) [Compound 741],3.6^[a]
5,CCOC(=O)C(C#N)=C(NC(C)COc1cccc(OC)c1)c1cn(C)nc1C(F)F (centres unmarked) [Compound 742],3.35^[a]
6,COC(=O)C(C#N)=C(NC(C)CF)c1cccnc1Cl (centres unmarked) [Compound 746],2.05^[a]
7,CCOC(=O)C(C#N)=C(NC(C)CF)c1ccncc1Cl (centres unmarked) [Compound 750],2.42^[a]
8,CCOC(=O)C(C#N)=C(NC(C)CF)c1cn(C)nc1C(F)(F)F (centres unmarked) [Compound 751],2.72^[a]
9,CCOC(=O)C(C#N)=C(NC(C)(C)C(C)(C)C)c1sccc1Br [Compound 755],4.67^[a]
10,CCOC(=O)C(C#N)=C(NC(C)C1CC=CCC1)c1cccnc1Cl (centres unmarked) [Compound 760],3.9^[a]
11,CCC(NC(=C(C#N)C(=O)OC)c1cccnc1Cl)C1CCCCC1 (centres unmarked) [Compound 762],4.07^[a]
12,COC(=O)C(C#N)=C(NC1CCCC1)c1cccnc1Cl [Compound 763],2.61^[a]
13,COC(=O)C(C#N)=C(NC(C)C1(Cl)CC1)c1cccnc1Cl (centres unmarked) [Compound 768],2.72^[a]
14,CCOC(=O)C(C#N)=C(NC(C)C1(Cl)CC1)c1sc(C)nc1C(F)(F)F (centres unmarked) [Compound 772],3.89^[a]
15,CCOC(=O)C(C#N)=C(NC(C)C1(Cl)CC1)c1ccsc1Br (centres unmarked) [Compound 774],3.92^[a]
16,COC(=O)C(C#N)=C(NC1CCC1)c1cccnc1Cl [Compound 793],2.34^[a]
17,CCOC(=O)C(C#N)=C(NC1CCC1)c1ccncc1Cl [Compound 798],2.84^[a]
18,CCOC(=O)C(C#N)=C(NC1CCC1)c1cccnc1C(F)F [Compound 799],2.76^[a]
19,CCOC(=O)C(C#N)=C(NC1CCC1)c1cnccc1C(F)(F)F [Compound 800],3.06^[a]
20,CCOC(=O)C(C#N)=C(NC1CCC1)c1ccncc1Br [Compound 803],2.9^[a]
21,CCOC(=O)C(C#N)=C(NC1CCC1)c1ccncc1F [Compound 804],2.66^[a]
22,CCOC(=O)C(C#N)=C(NC1CCC1)c1ccncc1C(F)(F)F [Compound 805],3.6^[a]
23,CCOC(=O)C(C#N)=C(NC(C)C)c1cccnc1Cl [Compound 823],2.66
24,CCC(C)NC(=C(C#N)C(=O)OC)c1cccnc1Cl (centres unmarked) [Compound 826],2.55^[a]
25,CCOC(=O)C(C#N)=C(NC(C)CC)c1sccc1Br (centres unmarked) [Compound 827],3.76^[a]

# Same assay, conditions: pH 7.5
row,SMILES,Log P
1,CCOC(=O)C(C#N)=C(NC(C)CCl)c1cccnc1Cl (centres unmarked) [Compound 743],2.7
2,CCOC(=O)C(C#N)=C(NC1CC1)c1cccnc1Cl [Compound 764],2.36
3,CCOC(=O)C(C#N)=C(NC(C)CBr)c1cccnc1Cl (centres unmarked) [Compound 767],2.79
4,CCOC(=O)C(C#N)=C(NC(C)CC#N)c1cccnc1Cl (centres unmarked) [Compound 792],2.13
5,CCOC(=O)C(C#N)=C(NC(C)C)c1cccnc1Cl [Compound 823],2.53
6,COC(=O)C(C#N)=C(NC(C)C#N)c1cccnc1Cl (centres unmarked) [Compound 869],1.86
7,COC(=O)C(C#N)=C(N[C@@H](C)C1CCCCC1)c1cccnc1Cl [Compound 870],3.76
8,COC(=O)C(C#N)=C(N[C@H](C)C1CCCCC1)c1cccnc1Cl [Compound 871],3.76
